The record followed here is patent US10772909B2, “System and method for insulin-mimetic of cartilage, bone, or osteochondral repair and piezoelectric composite scaffold” (New Jersey Institute of Technology, priority 2016, dated 2020).

For the assay, the system named is Human MSCs. The experiment in a line: Chondrogenesis culture: cell number (PicoGreen). Format: cell-based. Here is the method: Chondrogenesis Culture. Cryopreserved MSCs were thawed and expanded in GM until 70-80% confluent. Cells were trypsininzed and then seeded on 6 mm diameter scaffold disks at 1.76×10^5 cells/cm^2 and cultured for 28 days in GM, chondrogenic induction medium (CCM), or CCM without insulin, according to previously published methods. CCM consisted of DMEM high glucose containing 4 mM L-glutamine (Invitrogen, Grand Island, N.Y., USA), 0.1 μM dexamethasone (Sigma-Aldrich), 0.17 mM ascorbic acid-2-phosphate (Wako Chemicals, Richmond, Va., USA), 1% ITS+(6.25 µg/mL insulin, 6.25 µg/mL transferrin, 6.25 ng/mL selenous acid, 5.35 μg/ml linoleic acid and 1.25 mg of bovine serum albumin) Premix Culture Supplement (Corning, Corning, N.Y., USA), 1× antibiotic-antimycotic, 1 mM sodium pyruvate (Sigma-Aldrich), 0.35 mM proline (Sigma-Aldrich), and 10 ng/mL recombinant human transforming growth factor-beta3 (TGF-β3, ProSpec, Israel). CCM without insulin consisted of CCM where the 1% ITS+Premix Culture Supplement was substituted with 1% stock solution (6.25 μg/ml transferrin and 6.25 ng/ml selenous acid, 5.35 μg/ml lionleic acid (Sigma-Aldrich) and 1.25 mg of bovine serum albumin (Fisher Scientific). Na2WO4 was added to all media leading to final Na2WO4 concentrations of 0, 0.01, 0.1 and 1 mM. Samples were harvested and analyzed for sulfated glycosaminoglycans (sGAG), cell number and gene expression at day 14 and 28 and for collagen type II and immunostaining at day 28.
Production of sGAG and cell number were determined. Samples were digested using papain (Sigma-Aldrich, Mo., USA) buffer overnight at 65 C. ° following manufacturer's protocol. The sGAG assay is used to measure the total sulfated proteoglycan content using Blyscan sGAG Assay Kit (Biocolor, UK). Cell lysate of samples (n=4 per group) and color reagent were combined in transparent 96-well plate and the absorbance at 656 nm was measured using a microplate spectrophotometer (EMax, Molecular Devices, Melville, N.Y., USA). sGAG concentration was determined relative to chondroitin sulfate standard curve. PicoGreen® ds DNA assay (Life Technologies) was used to determine the cell number. MSCs of known cell number were used as standards. Standards were prepared by lysing the cells using papain buffer. The cell lysate of samples and standards (n=4 per group) was mixed with an equal volume of Pico Green reagent. Fluorescence intensity was measured with a microplate reader ((FLX800, Biotek Instruments, Vt., USA)) at 480 nm excitation and 520 nm emission. A standard curve of known cell number was used to determine the sample cell number. GAG production was normalized to cell number.

`[Na+].[Na+].[O]=[W](=[O])([O-])[O-]` [Na2WO4, sodium tungstate]: the “cell number vs 0.1 mM” value (0.01 mM Na2WO4, CCM, day 28, p<0.05) is given as “significantly higher than 0.1 mM”. Besides, the “cell number vs 0 mM” value (0.1 mM Na2WO4, GM, day 14) is “significantly higher”. The “cell number vs other groups” value (1 mM Na2WO4, CCM) is on record as “significantly lower”. Where the note is “1 mM Na2WO4, CCM without insulin, day 28”, the “cell number vs all other groups” value is listed as “significantly lower cell numbers”.
